Measurements from publication PMC6211260 (Journal of Enzyme Inhibition and Medicinal Chemistry, 2018).
pIC50: −log10 of the molar value. Read-outs that look alike come from different tables or passages of the source.

Assays:
Assay type in all cases: cell-based
[1] = test system: prostate cancer cell lines; test: NCI five-dose testing, subpanel mean; conditions: subpanel VIII: prostate cancer
Procedure: (§1) Screening against the cancer cell lines was carried out at the National Cancer Institute (NCI, Bethesda, Maryland, USA) applying the standard protocol of the NCI[22].

Leukaemia cell lines = test: NCI five-dose testing, subpanel mean; conditions: subpanel I: Leukaemia
Procedure: as §1

renal cancer cell lines = test: NCI five-dose testing, subpanel mean; conditions: subpanel VII: renal cancer
Procedure: as §1

CNS cancer cell lines = test: NCI five-dose testing, subpanel mean; conditions: subpanel IV: CNS cancer
Procedure: as §1

colon cancer cell lines = test: NCI five-dose testing, subpanel mean; conditions: subpanel III: colon cancer
Procedure: as §1

[2] = test system: ovarian cancer cell lines; test: NCI five-dose testing, subpanel mean; conditions: subpanel VI: ovarian cancer
Procedure: as §1

melanoma cell lines = test: NCI five-dose testing, subpanel mean; conditions: subpanel V: melanoma
Procedure: as §1

[3] = test system: non-small cell lung cancer cell lines; test: NCI five-dose testing, subpanel mean; conditions: subpanel II: non-small cell lung cancer
Procedure: as §1

breast cancer cell lines = test: NCI five-dose testing, subpanel mean; conditions: subpanel IX: breast cancer
Procedure: as §1

[4] = test system: OVCAR-4 ovarian cancer cell line; test: NCI five-dose testing; conditions: OVCAR-4; for IC (TGI): read-out: TGI (total growth inhibition concentration)
Procedure: as §1

[5] = test system: MDA-MB-468 breast cancer cell line; test: NCI five-dose testing; conditions: MDA-MB-468; for IC (TGI): read-out: TGI (total growth inhibition concentration)
Procedure: as §1

[6] = test system: HT-29 colon cancer cell line; test: NCI five-dose testing; conditions: HT-29; for IC (TGI): read-out: TGI (total growth inhibition concentration)
Procedure: as §1

[7] = test system: U251 CNS cancer cell line; test: NCI five-dose testing; conditions: for IC (TGI): read-out: TGI (total growth inhibition concentration)
Procedure: as §1

[8] = test system: SK-MEL-5 melanoma cell line; test: NCI five-dose testing; conditions: SK-MEL-5; for IC (TGI): read-out: TGI (total growth inhibition concentration)
Procedure: as §1

[9] = test system: PC-3 prostate cancer cell line; test: NCI five-dose testing; conditions: PC-3; for IC (TGI): read-out: TGI (total growth inhibition concentration)
Procedure: as §1

[10] = test system: A498 renal cancer cell line; test: NCI five-dose testing; conditions: A498; for IC (TGI): read-out: TGI (total growth inhibition concentration)
Procedure: as §1

[11] = test system: K-562 leukaemia cell line; test: NCI five-dose testing; conditions: K-562; for IC (TGI): read-out: TGI (total growth inhibition concentration)
Procedure: as §1

[12] = test system: HOP-92 non-small cell lung cancer cell line; test: NCI five-dose testing; conditions: HOP-92; for IC (TGI): read-out: TGI (total growth inhibition concentration)
Procedure: as §1

Row | SMILES | pIC50 [1] | pIC50 (Leukaemia cell lines) | pIC50 (renal cancer cell lines) | pIC50 (CNS cancer cell lines) | pIC50 (colon cancer cell lines) | pIC50 [2] | pIC50 (melanoma cell lines) | pIC50 [3] | pIC50 (breast cancer cell lines) | pIC50 [4] | LD50 (lethal dose 50) [4] [µM] | IC (TGI) [4] [µM] | pIC50 [5] | LD50 (lethal dose 50) [5] [µM] | IC (TGI) [5] [µM] | LD50 (lethal dose 50) [6] [µM] | pIC50 ([6]; read-out: IC50) | IC (TGI) [6] [µM] | LD50 (lethal dose 50) ([7]; U251) [µM] | pIC50 ([7]; U251, read-out: IC50) | further results
1 | COc1cccc(-c2nn(-c3ccccc3)cc2-c2ccnc(NCCNS(=O)(=O)c3ccc(Cl)cc3)c2)c1 [Compound 1c, 4-Chloro-N-(2-((4-(3-(3-methoxyphenyl)-1-phenyl-1H-pyrazol-4-yl)pyridin-2-yl)amino)ethyl) benzenesulfonamide] | 5.30 | 5.54 | 5.32 | 5.20 | 5.39 | 5.28 | 5.34 | 5.22 | 5.42 | 5.38 | >100 | >100 | 5.41 | >100 | >100 | >100 | 5.47 | 11.3 | >100 | 5.23 | IC (TGI) ([7]; U251): >100 µM; pIC50 [8]: 5.71; LD50 (lethal dose 50) [8]: 7.7 µM; IC (TGI) [8]: 3.8 µM; LD50 (lethal dose 50) [9]: >100 µM; pIC50 ([9]; read-out: IC50): 5.61; IC (TGI) [9]: >100 µM; pIC50 [10]: 5.34; LD50 (lethal dose 50) [10]: >100 µM; IC (TGI) [10]: >100 µM; pIC50 [11]: 5.43; LD50 (lethal dose 50) [11]: >100 µM; IC (TGI) [11]: >100 µM; pIC50 [12]: 5.61; LD50 (lethal dose 50) [12]: >100 µM; IC (TGI) [12]: 9.4 µM
2 | O=S(=O)(NCCNc1cc(-c2cn(-c3ccccc3)nc2-c2cccc(O)c2)ccn1)c1ccc(Br)cc1 [Compound 1k, 4-Bromo-N-(2-((4-(3-(3-hydroxyphenyl)-1-phenyl-1H-pyrazol-4-yl)pyridin-2-yl)amino)ethyl) benzenesulfonamide] | 5.60 | 5.68 | 5.61 | 5.66 | 5.64 | 5.54 | 5.69 | 5.57 | 5.63 | 5.63 | >100 | 13.7 | 5.57 | >100 | 7.7 | 17.3 | 5.66 | 5.0 | 25.6 | 5.66 | IC (TGI) ([7]; U251): 5.6 µM; pIC50 [8]: 5.79; LD50 (lethal dose 50) [8]: 5.6 µM; IC (TGI) [8]: 3.0 µM; LD50 (lethal dose 50) [9]: >100 µM; pIC50 ([9]; read-out: IC50): 5.68; IC (TGI) [9]: 6.4 µM; pIC50 [10]: 5.48; LD50 (lethal dose 50) [10]: 34.3 µM; IC (TGI) [10]: 5.4 µM; pIC50 [11]: 5.70; LD50 (lethal dose 50) [11]: >100 µM; IC (TGI) [11]: 5.4 µM; pIC50 [12]: 5.70; LD50 (lethal dose 50) [12]: 34.6 µM; IC (TGI) [12]: 5.0 µM
3 | O=S(=O)(NCCNc1cc(-c2cn(-c3ccccc3)nc2-c2cccc(O)c2)ccn1)c1ccc(F)cc1 [Compound 1m, 4-Fluoro-N-(2-((4-(3-(3-hydroxyphenyl)-1-phenyl-1H-pyrazol-4-yl)pyridin-2-yl)amino)ethyl) benzenesulfonamide] | 5.54 | 5.64 | 5.54 | 5.60 | 5.63 | 5.57 | 5.69 | 5.58 | 5.67 | 5.52 | >100 | >100 | 5.73 | >100 | 5.3 | 54.3 | 5.70 | 47.9 | 50.9 | 5.58 | IC (TGI) ([7]; U251): 6.8 µM; pIC50 [8]: 5.76; LD50 (lethal dose 50) [8]: 6.0 µM; IC (TGI) [8]: 3.2 µM; LD50 (lethal dose 50) [9]: >100 µM; pIC50 ([9]; read-out: IC50): 5.64; IC (TGI) [9]: 10.2 µM; pIC50 [10]: 5.63; LD50 (lethal dose 50) [10]: 45.7 µM; IC (TGI) [10]: 9.2 µM; pIC50 [11]: 5.70; LD50 (lethal dose 50) [11]: >100 µM; IC (TGI) [11]: >100 µM; pIC50 [12]: 5.69; LD50 (lethal dose 50) [12]: 68.8 µM; IC (TGI) [12]: 8.4 µM
4 | CNC(=O)c1cc(Oc2ccc(NC(=O)Nc3ccc(Cl)c(C(F)(F)F)c3)cc2)ccn1 [Sorafenib, reference compound] | 5.50 | 5.65 | 5.54 | 5.60 | 5.63 | 5.56 | 5.07 | 5.68 | 5.67 | – | – | – | – | – | – | – | – | – | – | – | pIC50 ([5]; Homo sapiens): 5.70; pIC50 ([6]; Homo sapiens): 5.60; pIC50 ([7]; Homo sapiens, U-251): 5.60; pIC50 ([8]; Homo sapiens): 5.90; pIC50 ([9]; Homo sapiens): 5.60; pIC50 ([12]; Homo sapiens): 5.73
